# Experimental data from BindingDB's records for doi:10.1016/j.chembiol.2016.06.016 (Massachusetts Institute of Technology, 2016).
# How the values were obtained:
# Cytochrome b [1] = target: Cytochrome b (Homo sapiens, UniProt P00156); experiment: Cytochrome b Enzyme Assay; settings: pH 7.4; 25 °C
# Description: (§1) Reaction plates were incubated at room temperature for 10 min before reading absorbance at 550 nm. Absolute IC50 values were calculated in GraphPad Prism 6.0.
# Cytochrome b [2] = target: T1, Cytochrome b (Candida albicans, UniProt I2BJW5); experiment: Cytochrome b Enzyme Assay; settings: pH 7.4; 25 °C
# T1 sequence (I2BJW5 whole entry): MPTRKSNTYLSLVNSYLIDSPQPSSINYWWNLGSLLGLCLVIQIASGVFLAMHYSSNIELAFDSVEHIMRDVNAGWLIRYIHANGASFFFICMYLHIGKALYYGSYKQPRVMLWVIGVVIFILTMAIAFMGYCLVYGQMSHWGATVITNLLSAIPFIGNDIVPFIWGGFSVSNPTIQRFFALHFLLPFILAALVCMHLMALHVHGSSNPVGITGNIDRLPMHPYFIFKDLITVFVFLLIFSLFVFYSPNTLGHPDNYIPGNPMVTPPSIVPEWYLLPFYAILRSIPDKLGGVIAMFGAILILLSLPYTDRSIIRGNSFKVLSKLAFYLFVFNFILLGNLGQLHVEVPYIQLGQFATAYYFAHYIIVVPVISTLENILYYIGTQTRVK
# Description: as §1
# Chain of Cytochrome b (Homo sapiens, UniProt P00156) (P00156 whole entry): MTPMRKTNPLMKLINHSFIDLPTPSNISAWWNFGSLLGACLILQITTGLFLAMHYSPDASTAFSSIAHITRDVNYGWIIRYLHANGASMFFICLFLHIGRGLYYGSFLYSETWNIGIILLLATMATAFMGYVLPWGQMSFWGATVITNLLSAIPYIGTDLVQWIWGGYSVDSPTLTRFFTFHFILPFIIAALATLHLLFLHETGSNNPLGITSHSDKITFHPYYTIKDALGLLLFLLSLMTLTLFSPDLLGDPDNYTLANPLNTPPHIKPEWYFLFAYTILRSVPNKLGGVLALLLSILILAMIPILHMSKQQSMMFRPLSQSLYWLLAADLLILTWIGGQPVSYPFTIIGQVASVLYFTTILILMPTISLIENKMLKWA
SMILES,IC50 (Cytochrome b [1]) [µM],IC50 (Cytochrome b [2]) [µM]
c1ccc(-c2nn(Cc3cncnc3)c3ccccc23)cc1 [Inz-93],> 64,> 64
Fc1ccc(C(F)(F)F)cc1-c1nn(Cc2cnccn2)c2ccccc12 [Inz-94],35.1,0.449
COc1cccc2c(-c3cc(C(F)(F)F)ccc3F)nn(Cc3cnccn3)c12 [Inz-95],15.2,0.437
N#Cc1cccc2c(-c3cc(C(F)(F)F)ccc3F)nn(Cc3cnccn3)c12 [Inz-96],> 64,22.7
Fc1ccc(C(F)(F)F)cc1-c1nn(Cc2cnccn2)c2ncccc12 [Inz-97],54.4,0.935
Fc1ccc(C(F)(F)F)cc1-c1nn(Cc2cnccn2)c2ccncc12 [Inz-98],> 64,20.4
Fc1ccc(C(F)(F)F)cc1-c1nn(Cc2cnccn2)c2cccnc12 [Inz-99],> 64,17.7
Nc1ccc2c(-c3cc(C(F)(F)F)ccc3F)nn(Cc3cnccn3)c2c1 [Inz-100],> 64,5.48
CC(=O)Nc1ccc2c(-c3cc(C(F)(F)F)ccc3F)nn(Cc3cnccn3)c2c1 [Inz-101],> 64,> 64
CS(=O)(=O)N(c1ccc2c(-c3cc(C(F)(F)F)ccc3F)nn(Cc3cnccn3)c2c1)S(C)(=O)=O [Inz-102],> 64,> 64
CNc1ccc2c(-c3cc(C(F)(F)F)ccc3F)nn(Cc3cnccn3)c2c1 [Inz-103],> 64,2.13
COC(=O)Cc1nn(-c2ccccc2)c2ccccc12 [Inz-104],> 64,17.6
"CCCCCCC1C(=O)O[C@H](C)[C@H](NC(=O)c2cccc(NC=O)c2O)C(=O)O[C@@H](C)[C@@H]1OC(=O)CC(C)C (stereo partly drawn) [[(2R,3S,6S,7R)-3-[(3-formamido-2-hydroxybenzoyl)amino]-8-hexyl-2,6-dimethyl-4,9-dioxo-1,5-dioxonan-7-yl] 3-methylbutanoate]",0.007,0.005
